Values joined by “and” are separate entries in the source; they are usually repeats but may differ in a detail not shown here. Identical values can stand only once.
Legend:
α-glucosidase = α-glucosidase (Saccharomyces cerevisiae, UniProt P53341); assay: α-Glucosidase inhibitory assay; type: biochemical
Procedure: In this assay, glucopyranoside is added to the solvent (phosphate buffer). Various concentrations of the synthetized compounds like 500, 250, 125, 62.5, and 31.25 µg/ml were used for preparing the sample solutions. Glucosidase in distilled water (0.5 µg/ml) was added to the above mixture. This mixture was then incubated for 20 minutes at 37°C [36]. After the incubation period, the reaction mixture was ceased by the addition of hydrochloric acid. The color intensity was determined at 540 nm wavelength using a spectrophotometer. The formula which was used to determine percentage inhibition is:(3) Percent Inhibition=AbsorbanceControl−AbsorbanceSample/Absorbance Control×100.

α-amylase = biological target: T1, α-amylase (Sus scrofa, UniProt P00690); assay: In vitro α-amylase inhibition assay; type: biochemical
T1 sequence (P00690 16-511): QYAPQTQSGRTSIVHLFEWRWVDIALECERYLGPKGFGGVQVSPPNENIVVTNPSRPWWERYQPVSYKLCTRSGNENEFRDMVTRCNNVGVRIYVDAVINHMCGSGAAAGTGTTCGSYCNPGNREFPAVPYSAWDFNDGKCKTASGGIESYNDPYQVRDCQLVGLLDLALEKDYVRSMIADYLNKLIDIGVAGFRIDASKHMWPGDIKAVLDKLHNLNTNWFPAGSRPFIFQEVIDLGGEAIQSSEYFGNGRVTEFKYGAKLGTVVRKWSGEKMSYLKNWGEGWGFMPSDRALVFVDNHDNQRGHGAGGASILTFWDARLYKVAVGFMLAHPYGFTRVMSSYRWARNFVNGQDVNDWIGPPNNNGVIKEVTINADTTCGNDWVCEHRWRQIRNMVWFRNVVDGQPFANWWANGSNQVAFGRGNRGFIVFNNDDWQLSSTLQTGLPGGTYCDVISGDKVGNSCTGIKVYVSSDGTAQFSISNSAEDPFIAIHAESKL
Procedure: In this assay, previously documented protocols were used. […] Starch solution was then mixed with the above solution and then incubated for about 20 minutes at 37°C. After incubation, the reactant mixture was then kept in a water bath for some time at 100°C. Color intensity was measured using a microplate reader at 656 nm. To determine percentage inhibition, the following formula was used:(4) Percent Inhibition=AbsorbanceControl−AbsorbanceSample/Absorbance Control×100.

[1] = DPPH radical scavenging assay; conditions: for IC50: read-out: DPPH free radicals scavenging IC50
Procedure: A previously reported method for DPPH radical scavenging activity was used to determine the anti-oxidant activity of the synthetic compounds with insignificant modification. A solution of DPPH, e.g., (50 µL of 1.0 × 10^−3 M), was prepared freshly and then added to CH3OH (methyl alcohol). A solvent like methanol was used as a control group. The mixture was then incubated for 30 minutes at 25°C. A spectrophotometer is used to calculate the DPPH free radicals at specific wavelength like 517 nm. After the incubation period, Trolox (drug) was used as the control group (positive). The anti-oxidant activity was determined using the following formula:(1) Percent Inhibition=Absorbancecontrol−Absorbancetest sample/Absorbancecontrol×100.

[2] = ABTS radical scavenging assay; conditions: for IC50: read-out: ABTS free radicals scavenging IC50
Procedure: A previously reported method for ABTS radical scavenging assay was used to determine the anti-oxidant activity of the synthetic compounds with negligible modification. The stock solution was prepared, e.g., 7 mM ABTS solution and 2.4 mM of potassium persulfate solution, and then mixed in equal amounts for about 16 hours. The stock solution was then diluted with methyl alcohol. Using a spectrophotometer, the absorption (0.7 ± 0.02) units at 734 nm wavelength were identified. In this assay, the solution was prepared freshly. The ABTS solution (150 µl) was mixed with the synthesized compounds (50 µl) and then reserved in darkness for about 10 minutes. The same procedure was repeated 3 times and then the results were verified using mean ± standard deviation. A solvent, e.g., methanol, was used as blank and the standard (butyl hydroxytoluen in methanol) were run at the same time. The absorbance was checked at a wavelength of 734 nm by utilizing a microplate reader.

[3] = biological target: T2, acetylcholinesterase (AChE) (Electrophorus electricus, UniProt O42275); assay: biochemical; type: biochemical
T2 construct: (AChE) acetylcholinesterase from electric eel; purchased Sigma Aldrich (local seller); host or cells: electric eel (natural source)
Procedure: (§1) In Ellman's test, enzymes like (BChE) butyrylcholinesterase from equine serum and (AChE) acetylcholinesterase from electric eel were designated for studying the enzyme inhibitory capacity of the new synthesized compounds [33, 34].
(§2) Synthetic compounds in concentration ranging from 31.25 to 500 µg/ml, KH2PO4 (13.6 g/L) and K2HPO4 (17.4 g/L), were dissolved in 0.1 M phosphate buffer solution. After mixing, they were combined in 6 and 94% ratio, to make 0.1 M and 8.0 phosphate buffer solutions having […]. Potassium hydroxide was used to change the pH. The freshly prepared buffer […], AChE (518 U/mg solid), and BChE (7–16 U/mg) were diluted to achieve final absolute concentrations of 0.01 U/ml and 0.03 U/ml, respectively. In distilled water, BChI (0.0005 M), DTNB iedithio bis-nitrobenzoic acid solution (0.0002273 M), and AChI were prepared and then kept in the refrigerator [35].
(§3) After that, the substrate solution (5 μl) was added into the solution present in mixture form and was held in a water bath for 15 minutes at 30°C. Absorbance was measured at 412 nm using a double beam spectrophotometer. […] At 30°C, the absorbance and the time of the reaction were measured at 30°C for four minutes and repeated three times.

[4] = biological target: T3, butyrylcholinesterase (BChE) (Equus caballus, UniProt P81908); assay: biochemical; type: biochemical
T3 construct: (BChE) butyrylcholinesterase from equine serum; purchased Sigma Aldrich (local seller); host or cells: equine serum (natural source)
Procedure: as §1, §2, §3

[5] = 500 μmol/mL (first value of the series)
[6] = first value of series, concentration not given (method 31.25 to 500 µg/ml)
[7] = fifth value of series, presumably 31.25
[8] = fourth value of series, presumably 62.5
[9] = second value of series, presumably 250
[10] = third value of series, presumably 125

Chain of α-glucosidase (P53341 whole entry): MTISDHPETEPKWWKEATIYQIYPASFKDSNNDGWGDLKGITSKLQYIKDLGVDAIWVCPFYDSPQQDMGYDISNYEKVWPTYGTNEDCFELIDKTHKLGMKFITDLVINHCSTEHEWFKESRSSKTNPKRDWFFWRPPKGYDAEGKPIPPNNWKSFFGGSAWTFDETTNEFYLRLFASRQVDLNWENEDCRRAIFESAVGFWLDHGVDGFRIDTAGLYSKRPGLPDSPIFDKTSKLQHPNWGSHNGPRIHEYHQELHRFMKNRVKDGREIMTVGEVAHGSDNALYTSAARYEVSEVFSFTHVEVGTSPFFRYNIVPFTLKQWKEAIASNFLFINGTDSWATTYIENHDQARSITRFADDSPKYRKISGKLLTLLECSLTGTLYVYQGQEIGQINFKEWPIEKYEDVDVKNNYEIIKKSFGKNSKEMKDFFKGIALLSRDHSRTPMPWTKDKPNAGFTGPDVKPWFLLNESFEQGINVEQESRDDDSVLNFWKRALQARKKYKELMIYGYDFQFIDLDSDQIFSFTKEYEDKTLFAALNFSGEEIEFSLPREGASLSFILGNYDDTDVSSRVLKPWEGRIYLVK
T2 sequence (O42275 24-633): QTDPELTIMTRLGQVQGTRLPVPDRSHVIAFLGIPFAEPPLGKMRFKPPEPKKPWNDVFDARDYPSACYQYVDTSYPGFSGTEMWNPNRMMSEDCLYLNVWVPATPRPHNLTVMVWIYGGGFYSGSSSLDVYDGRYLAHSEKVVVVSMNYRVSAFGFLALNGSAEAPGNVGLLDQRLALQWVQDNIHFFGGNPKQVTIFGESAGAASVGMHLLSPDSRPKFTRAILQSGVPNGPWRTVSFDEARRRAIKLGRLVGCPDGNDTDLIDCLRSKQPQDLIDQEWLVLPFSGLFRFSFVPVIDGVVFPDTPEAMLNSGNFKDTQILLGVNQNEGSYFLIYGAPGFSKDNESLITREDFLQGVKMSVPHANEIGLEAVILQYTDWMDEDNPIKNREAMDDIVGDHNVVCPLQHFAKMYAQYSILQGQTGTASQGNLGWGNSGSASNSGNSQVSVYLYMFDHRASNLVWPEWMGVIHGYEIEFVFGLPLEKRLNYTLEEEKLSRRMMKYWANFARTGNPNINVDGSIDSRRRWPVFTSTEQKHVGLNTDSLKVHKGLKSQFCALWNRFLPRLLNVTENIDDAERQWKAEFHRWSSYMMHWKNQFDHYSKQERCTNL
T3 sequence (P81908 whole entry): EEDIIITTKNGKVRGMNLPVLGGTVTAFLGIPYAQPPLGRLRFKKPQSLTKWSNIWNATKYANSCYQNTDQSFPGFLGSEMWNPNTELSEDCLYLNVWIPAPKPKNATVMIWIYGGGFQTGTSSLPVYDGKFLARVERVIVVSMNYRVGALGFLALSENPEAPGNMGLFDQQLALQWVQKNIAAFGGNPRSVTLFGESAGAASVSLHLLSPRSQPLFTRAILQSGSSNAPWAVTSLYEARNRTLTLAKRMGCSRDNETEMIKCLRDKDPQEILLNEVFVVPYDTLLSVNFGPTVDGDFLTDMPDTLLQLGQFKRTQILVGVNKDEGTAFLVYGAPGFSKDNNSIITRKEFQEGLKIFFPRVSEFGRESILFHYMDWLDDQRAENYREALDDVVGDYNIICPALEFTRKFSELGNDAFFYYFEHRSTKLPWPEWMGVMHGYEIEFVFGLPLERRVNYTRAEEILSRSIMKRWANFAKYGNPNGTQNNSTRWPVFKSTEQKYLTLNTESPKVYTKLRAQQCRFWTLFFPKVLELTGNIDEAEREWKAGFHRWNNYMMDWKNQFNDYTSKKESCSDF

SMILES: C[C@H]1O[C@H](O[C@H]2[C@H](O)[C@@H](O)[C@@H](O[C@H]3[C@H](O)[C@@H](O)C(O)O[C@@H]3CO)O[C@@H]2CO)[C@H](O)[C@@H](O)[C@@H]1N[C@H]1C=C(CO)[C@@H](O)[C@H](O)[C@H]1O (some centres unmarked) [Acarbose]
- α-glucosidase % inhibition (α-glucosidase; 31.25 µmol/mL): 71.22 ± 0.47%
- α-glucosidase % inhibition (α-glucosidase; 62.5 µmol/mL): 76.44 ± 0.28%
- α-glucosidase % inhibition (α-glucosidase; 125 µmol/mL): 80.90 ± 1.11%
- α-glucosidase % inhibition (α-glucosidase; 250 µmol/mL): 85.03 ± 2.16%
- α-glucosidase % inhibition (α-glucosidase; 500 µmol/mL): 94.40 ± 0.03%
- α-amylase percent inhibition (α-amylase; 31.25 µmol/mL): 75.45 ± 0.90%
- α-amylase percent inhibition (α-amylase; 62.5 µmol/mL): 77.61 ± 0.43%
- α-amylase percent inhibition (α-amylase; 125 µmol/mL): 82.40 ± 0.20%
- α-amylase percent inhibition (α-amylase; 500 µmol/mL): 91.90 ± 0.96%

SMILES: O=C1O[C@H]([C@@H](O)CO)C(O)=C1O [Ascorbic acid, reference compound]
- percent radical scavenging (DPPH) ([1]; 31.25 μmol/mL (fifth value)): 86.42 ± 0.43%
- percent radical scavenging (DPPH) ([1]; 62.5 μmol/mL (fourth value)): 88.22 ± 1.28%
- percent radical scavenging (DPPH) ([1]; 125 μmol/mL (third value)): 91.52 ± 0.66%
- percent radical scavenging (DPPH) ([1]; 250 μmol/mL (second value)): 93.56 ± 0.45%
- percent radical scavenging (DPPH) [1, 5]: 98.65 ± 1.32%
- IC50 [1]: 6.25 µM
- IC50 [2]: 4.66 µM

SMILES: O=C1CCCCC1C1CC(=O)N(c2ccccc2)C1=O (centres unmarked) [MSJ1, 3-(2-oxocyclohexyl)-1-phenylpyrrolidine-2,5-dione]
- IC50 [1]: 34.6 µM
- IC50 [2]: 29.4 µM

SMILES: O=C1CCCCC1C1CC(=O)N(Cc2ccccc2)C1=O (centres unmarked) [MSJ2, 1-benzyl-3-(2-oxocyclohexyl) pyrrolidine-2,5-dione]
- percent radical scavenging (DPPH) ([1]; 31.25 μmol/mL (fifth value)): 73.45 ± 0.65%
- percent radical scavenging (DPPH) ([1]; 62.5 μmol/mL (fourth value)): 78.23 ± 0.44%
- percent radical scavenging (DPPH) ([1]; 125 μmol/mL (third value)): 81.50 ± 0.61%
- percent radical scavenging (DPPH) ([1]; 250 μmol/mL (second value)): 84.47 ± 0.46%
- percent radical scavenging (DPPH) [1, 5]: 86.47 ± 0.70%
- IC50 [1]: 2.59 µM
- percent inhibitions (ABTS) ([2]; 31.25 µmo/mL (fifth value)): 74.65 ± 1.34%
- IC50 [2]: 7.32 µM
- percent anti-AChE potential [3, 6]: 91.90%
- percent anti-BChE potential [4, 6]: 97.30%

SMILES: O=C1CCCCC1C1CC(=O)N(c2ccc(Br)cc2)C1=O (centres unmarked) [MSJ3, 1-(4-bromophenyl)-3-(2-oxocyclohexyl) pyrrolidine-2,5-dione]
- IC50 [1]: 33.5 µM
- IC50 [2]: 24 µM

SMILES: CC1CCC(=O)C(C2CC(=O)N(c3ccccc3)C2=O)C1 (centres unmarked) [MSJ4, 3-(5-methyl-2-oxocyclohexyl)-1-phenylpyrrolidine-2,5-dione]
- IC50 [1]: 32 µM
- IC50 [2]: 48.7 µM

SMILES: CC1CCC(=O)C(C2CC(=O)N(Cc3ccccc3)C2=O)C1 (centres unmarked) [MSJ5, 1-benzyl-3-(5-methyl-2-oxocyclohexyl)pyrrolidine-2,5-dione]
- IC50 [1]: 39 µM
- IC50 [2]: 51.2 µM

SMILES: O=C1CCOCC1C1CC(=O)N(c2ccccc2)C1=O (centres unmarked) [MSJ6, 3-(4-oxotetrahydro-2H-pyran-3-yl)-1-phenylpyrrolidine-2,5-dione]
- IC50 [1]: 44.9 µM
- IC50 [2]: 55.1 µM

SMILES: O=C1CCCCCC1C1CC(=O)N(c2ccccc2)C1=O (centres unmarked) [MSJ7, 3-(2-oxocycloheptyl)-1-phenylpyrrolidine-2,5-dione]
- IC50 [1]: 31.4 µM
- IC50 [2]: 36.3 µM

SMILES: O=C1CCCC1C1CC(=O)N(c2ccccc2)C1=O (centres unmarked) [MSJ8, 3-(2-oxocyclopentyl)-1-phenylpyrrolidine-2,5-dione]
- IC50 [1]: 29.2 µM
- IC50 [2]: 25.2 µM

SMILES: CC(=O)CC1CC(=O)N(c2ccccc2)C1=O (centres unmarked) [MSJ9, 3-(2-oxopropyl)-1-phenylpyrrolidine-2,5-dione]
- IC50 [1]: 53 µM
- IC50 [2]: 38.1 µM

SMILES: CC(=O)C(C)(C)C1CC(=O)N(c2ccccc2)C1=O (centres unmarked) [MSJ10, 3-(2-methyl-3-oxobutan-2-yl)-1-phenylpyrrolidine-2,5-dione]
- percent radical scavenging (DPPH) ([1]; 62.5 μmol/mL (fourth value)): 79.67 ± 0.61%
- percent radical scavenging (DPPH) ([1]; 125 μmol/mL (third value)): 85.79 ± 0.63%
- percent radical scavenging (DPPH) ([1]; 250 μmol/mL (second value)): 90.90 ± 0.48%
- IC50 [1]: 2.52 µM
- percent inhibitions (ABTS) ([2]; 62.5 µmo/mL (fourth value)): 79.67 ± 0.61%
- percent inhibitions (ABTS) ([2]; 125 µmo/mL (third value)): 85.79 ± 0.63%
- percent inhibitions (ABTS) ([2]; 250 µmo/mL (second value)): 90.90 ± 0.48%
- IC50 [2]: 3.29 µM
- percent anti-AChE potential [3, 7]: 78.58 ± 1.12%
- percent anti-AChE potential [3, 6]: 93.20% and 93.20 ± 0.10%
- percent anti-AChE potential [3, 8]: 83.40 ± 0.25%
- IC50 ([3]; read-out: IC50 against AChE): 4.97 µM
- percent anti-AChE potential [3, 9]: 90.09 ± 0.32%
- percent anti-AChE potential [3, 10]: 88.67 ± 1.20%
- percent anti-BChE potential [4, 7]: 73.89 ± 0.49%
- percent anti-BChE potential [4, 6]: 91.36% and 91.36 ± 0.39%
- percent anti-BChE potential [4, 8]: 78.26 ± 0.43%
- IC50 ([4]; read-out: IC50 against BChE): 10.7 µM
- percent anti-BChE potential [4, 9]: 87.15 ± 1.07%
- percent anti-BChE potential [4, 10]: 83.00 ± 0.44%

Source: publication PMC9356783, “Succinimide Derivatives as Antioxidant Anticholinesterases, Anti-α-Amylase, and Anti-α-Glucosidase: In Vitro and In Silico Approaches” (Evidence-based Complementary and Alternative Medicine : eCAM, 2022)
